The source made the active and inactive calls. The rule behind the calls is not given here.

For 1 compound, mutagenic call results are on record in PubChem BioAssay AID1259407 (Chemical Carcinogenesis Research Information System (CCRIS), 2018).

The series concerns CCRIS mutagenicity, Ames/micronucleus/aberration tests. The experiment in a line: CCRIS mutagenicity studies.

Consider `CC(=O)Nc1ccc(N)cc1`, for which the mutagenic call was “inactive; negative” (Test System: AMES SALMONELLA TYPHIMURIUM, Strain/Indicator: TA97, Metabolic Activation: HAMSTER, LIVER, S-9, AROCLOR 1254 (10%), Method: PREINCUBATION); “inactive; negative” (Test System: AMES SALMONELLA TYPHIMURIUM, Strain/Indicator: TA97, Metabolic Activation: NONE, Method: PREINCUBATION); “inactive; negative” (Test System: AMES SALMONELLA TYPHIMURIUM, Strain/Indicator: TA97, Metabolic Activation: RAT, LIVER, S-9, AROCLOR 1254 (10%), Method: PREINCUBATION); “active; positive” (Test System: AMES SALMONELLA TYPHIMURIUM, Strain/Indicator: TA98, Metabolic Activation: HAMSTER, LIVER, S-9, AROCLOR 1254 (10%), Method: PREINCUBATION); “inactive; negative” (Test System: AMES SALMONELLA TYPHIMURIUM, Strain/Indicator: TA98, Metabolic Activation: NONE, Method: PREINCUBATION); “active; positive” (Test System: AMES SALMONELLA TYPHIMURIUM, Strain/Indicator: TA98, Metabolic Activation: RAT, LIVER, S-9, AROCLOR 1254 (10%), Method: PREINCUBATION). Also, the mutagenic call is, setting by setting: (Test System: AMES SALMONELLA TYPHIMURIUM, Strain/Indicator: TA100, Metabolic Activation: HAMSTER, LIVER, S-9, AROCLOR 1254 (10%), Method: PREINCUBATION) “inactive; negative”; (Test System: AMES SALMONELLA TYPHIMURIUM, Strain/Indicator: TA100, Metabolic Activation: NONE, Method: PREINCUBATION) “inactive; negative”; (Test System: AMES SALMONELLA TYPHIMURIUM, Strain/Indicator: TA100, Metabolic Activation: RAT, LIVER, S-9, AROCLOR 1254 (10%), Method: PREINCUBATION) “inactive; negative”; (Test System: AMES SALMONELLA TYPHIMURIUM, Strain/Indicator: TA1535, Metabolic Activation: HAMSTER, LIVER, S-9, AROCLOR 1254 (10%), Method: PREINCUBATION) “inactive; negative”; (Test System: AMES SALMONELLA TYPHIMURIUM, Strain/Indicator: TA1535, Metabolic Activation: NONE, Method: PREINCUBATION) “inactive; negative”; (Test System: AMES SALMONELLA TYPHIMURIUM, Strain/Indicator: TA1535, Metabolic Activation: RAT, LIVER, S-9, AROCLOR 1254 (10%), Method: PREINCUBATION) “inactive; negative”. The mutagenic call (Test System: Ames Salmonella typhimurium, Strain/Indicator: TA98, Metabolic Activation: None, Method: Standard Plate) is “inactive; negative”; the mutagenic call (Test System: Ames Salmonella typhimurium, Strain/Indicator: TA100, Metabolic Activation: None, Method: Standard Plate) is “inactive; negative”; the mutagenic call (Test System: Ames Salmonella typhimurium, Strain/Indicator: TA102, Metabolic Activation: None, Method: Standard Plate) was “inactive; negative”; the mutagenic call (Test System: Ames Salmonella typhimurium, Strain/Indicator: TA1535, Metabolic Activation: None, Method: Standard Plate) was “inactive; negative”; the mutagenic call (Test System: Ames Salmonella typhimurium, Strain/Indicator: TA1537, Metabolic Activation: None, Method: Standard Plate) is “inactive; negative”; the mutagenic call (Test System: UDS RODENT HEPATOCYTES, Strain/Indicator: THY INCORP (NON-S-PHASE), Metabolic Activation: NONE, Method: AUTORADIOGRAPHY) was “inactive; negative”.
